Where two headings read alike, the source gives them in different places. Bridge positions count the residues as written; N and C are the ends. Square brackets hold non-standard residues; d marks the D form. Peptide text beside a SMILES is read from it. I, II: the chains in the order shown.
How the values were obtained:
Assay type in all cases: cell-based
[1] = test system: metastatic human breast (SUM 52 PE) and prostate (DU 145) cancer cell lines, human microvascular cells (hmvec); settings: for IC50 (concentration exhibiting a 50% inhibition of invasion, relative to stimulated controls): 72 h; for fold more potent than the unmodified PHSCN: SUM 52 PE and DU 145 invasion
Experimental: Some of the examples below employ an invasion assay utilizing naturally occurring basement membranes from 72 hour sea urchin embryos. Breast and prostate cancer invasion was induced with serum; hmvec invasion was induced with the PHSRN sequence of the plasma fibronectin (pFn) cell binding domain. The assay is described in U.S. Pat. No. 6,001,965, hereby incorporated by reference.
In this example, PHSCN peptides, where the sulfur of the SH group of cysteine was modified to block disulfide bond formation, were tested in an in vitro invasion assay utilizing naturally occurring basement membranes. More specifically, the invasion-inhibiting potencies of S-methylated and S-acetylated derivatives of the PHSCN (SEQ ID NO:1) peptide [i.e. Ac-PHSC(S—CH3)N—NH2 (SEQ ID NO:3) and Ac-PHSC(S—COCH3)N—NH2, (SEQ ID NO:4), respectively] were quantitated [in comparison with PHSCN (SEQ ID NO:1) dimerized by S—S bond formation] with two types of metastatic human cancer cell lines, i.e. a breast cell line (SUM 52 PE) and a prostate cell line (DU 145) (see FIG. 1 and FIG. 2, respectively). These modified peptides prevent breast cancer and prostate cancer invasion at concentrations in the pg/ml range.
In this example, PHSCN peptides, where two L-amino acids are substituted with D-amino acids, were tested in an in vitro invasion assay utilizing naturally occurring basement membranes. More specifically, the invasion-inhibiting potencies of Ac-PHScN—NH2 (SEQ ID NO:7), and Ac-PhScN—NH2 (SEQ ID NO:8) were quantitated [in comparison with Ac-PHSCN—NH2 (SEQ ID NO:12) as well as a scrambled peptide Ac-HSPNC—NH2 (SEQ ID NO:15)] with two types of metastatic human cancer cell lines, i.e. a breast cell line (SUM 52 PE) and a prostate cell line (DU 145) (see FIG. 3 and FIG. 4, respectively), as well as human microvascular cells (“hmvec”) (see FIG. 5). These modified peptides prevent breast cancer and prostate cancer invasion at concentrations in the pg/ml range.
Table I compares IC50's of Ac-PHSCN—NH2 (“PHSCN”) (SEQ ID NO:12), Ac-PhScN—NH2 (SEQ ID NO:8) (“PhScN”), Ac-PHScN—NH2 (SEQ ID NO:7) (“PHScN”), and the S-methylated and S-acetylated PHSCN derivatives [Ac-PHSC(S-Me)N—NH2 (SEQ ID NO:3) and Ac-PHSC(S—COCH3)N—NH2 (SEQ ID NO:4)]. The IC50 for PhScN is over 10,000-fold lower than that for PHSCN.

[2] = test system: Panc1 cells; assay: invasion of irradiated cells on SU-ECM basement membranes; settings: 1 μg/ml peptide, single 2 Gy dose, 16 hours
Experimental: (§1) Adherent BxPC-3 and Panc1 cells were irradiated. Panc1 cells received a single 2 Gy dose. BxPC-3 cells received a single 3 Gy dose. Approximately 45 minutes later, the cells were suspended (trypsinized), pelleted and resuspended in medium containing 10% fetal calf serum. Then, the appropriate concentration of the Ac-PHSCN—NH2 (SEQ ID NO: 12) peptide, as well as a scrambled peptide Ac-HSPNC—NH2 (SEQ ID NO:15), was added to the suspended cells to make a final peptide concentration of 1 μg/ml, and they were dropped onto the surfaces of SU-ECM (sea urchin embryo basement membranes). At the time the cells were placed on the basement membranes, one hour had elapsed since irradiation. Cells were incubated on the basement membranes for 16 hours at 37° C. in 5% CO2, prior to scoring at 400-fold magnification, under phase contrast optics. All single cells adherent to the basement membranes were scored, with respect to whether they were inside the basement membranes (invaded), or were still adherent to the exterior surface (uninvaded). Mean invasion percentages were determined with their first standard deviations for each sample.

[3] = test system: BxPC-3 cells; assay: as above; settings: 1 μg/ml peptide, single 3 Gy dose, 16 hours
Experimental: as §1

Compound	IC50 (concentration exhibiting a 50% inhibition of invasion, relative to stimulated controls) [1] [ng/mL]	fold more potent than the unmodified PHSCN [1]	other results
CC(=O)N1CCC[C@H]1C(=O)N[C@@H](Cc1c[nH]cn1)C(=O)N[C@@H](CO)C(=O)N[C@@H](CSSC[C@H](NC(=O)[C@H](CO)NC(=O)[C@H](Cc1c[nH]cn1)NC(=O)[C@@H]1CCCN1C(C)=O)C(=O)N[C@@H](CC(N)=O)C(N)=O)C(=O)N[C@@H](CC(N)=O)C(N)=O [(PHSCN)2] (I: Ac-PHSCN-NH2 / II: Ac-PHSCN-NH2; disulfide I:4-II:4; N-terminus and C-terminus assumed)	0.1 to 0.5	–	–
Ac-PHSC(Ac)N-NH2 [PHSC(S—COCH3)N, Ac-PHSC(S—COCH3)N—NH2]	0.0001	~100,000 fold	invasion-inhibiting potency relative to comparators, in words ([1]; listed as S-OAc): many orders of magnitude more potent
CC(=O)N1CCC[C@H]1C(=O)N[C@@H](Cc1c[nH]cn1)C(=O)N[C@@H](CO)C(=O)N[C@H](CS)C(=O)N[C@@H](CC(N)=O)C(N)=O [Ac-PHScN-NH2] (Ac-PHS[dC]N-NH2)	0.005	–	invasion-inhibiting potency relative to comparators, in words [1]: better than the controls, albeit not as potent as the two D-amino acid-containing peptide
Ac-HSPNC—NH2 (Ac-HSPNC-NH2) [scrambled peptide control]	–	–	invasion after irradiation [2]: no inhibition of invasiveness; invasion after irradiation [3]: no inhibition of invasiveness
CSC[C@H](NC(=O)[C@H](CO)NC(=O)[C@H](Cc1c[nH]cn1)NC(=O)[C@@H]1CCCN1C(C)=O)C(=O)N[C@@H](CC(N)=O)C(N)=O [PHSC(S—CH3)N, Ac-PHSC(S—CH3)N—NH2] (Ac-PHSC(Me)N-NH2)	0.001	~1000 fold	invasion-inhibiting potency relative to comparators, in words ([1]; listed as S-Me): many orders of magnitude more potent

— US8940701B2, “Compounds for, and methods of, treating cancer and inhibiting invasion and metastases” (The Regents of the University of Michigan, priority 2009, dated 2015)
